Values joined by “and” are separate entries in the source; they are usually repeats but may differ in a detail not shown here. Equal values may be shown once.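 Values below derive from 48-hour exposures of cells grown in 96-well plates, with endpoints linearly interpolated between the two concentrations bracketing the appropriate inhibition level. The concentration for 50% growth inhibition is given as GI50. At the TGI there is no net growth.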

Consider 15 compounds from PubChem BioAssay (NCI).

Test in all cases: NCI tumour cell line growth inhibition, 48 h
The subject of experiment [1] is HOP-18 NSCLC.
Experiment [2] concerns LXFL 529 NSCLC.
The test system of experiment [3] is KM20L2 colon.
For experiment [4], the system named is M19-MEL melanoma.
The test system of experiment [5] is SNB-78 CNS.
Experiment [6] has as its system DMS 273 small cell lung.
The test system of experiment [7] is RXF-631 renal.
The test system of experiment [8] is XF 498 CNS.
The test system of experiment [9] is MDA-N.
Experiment [10] relates to P388 leukemia.
In experiment [11] the test system is SN12K1 renal.

For the compound `CC(=O)[CH-]C(=O)c1ccccc1.CC(=O)[CH-]C(=O)c1ccccc1.CC1(C)C2CCC1(C)C([O-])C2.CC1(C)C2CCC1(C)C([O-])C2.[Ti+4]`, the GI50 was 36.6 µM in [1], 23.7 µM in experiment [2], 60 µM in experiment [3] and 24.4 µM in experiment [4]. Moreover, the TGI in experiment [1], in experiment [2], in experiment [3] and in experiment [4] was over 100 µM in each case.
As for `Clc1cc(Cc2cc(Cl)c(Cl)c3c2OCOC3)c2c(c1Cl)COCO2`, the TGI was over 100 µM in [5]; 97.9 µM in experiment [1]; over 100 µM in experiment [6]; over 100 µM in [2]; over 100 µM in experiment [3]; over 100 µM in [4].
On to `N#CC(C(=O)/C(=N/N)C(C#N)c1ccccc1)c1ccccc1` (centres undefined), for which the TGI in experiment [5], in experiment [1], in experiment [2], in experiment [7], in experiment [4] and in experiment [8] was over 100 µM throughout.
Consider `Oc1cc(O)c2c(-c3c(O)c(-c4ccc(O)c(O)c4)[o+]c4cc(O)cc(O)c34)c(O)c(-c3ccc(O)c(O)c3)[o+]c2c1`, for which the TGI in experiment [5] was over 100 µM; in [1], 36.4 µM; in experiment [6], over 100 µM; in [2] it was over 100 µM; in [7], over 100 µM; in experiment [3] it was over 100 µM. The TGI in experiment [4] is over 100 µM; in experiment [8], 87.6 µM.
Regarding `CCC/C(=N/NC(=O)C(N)=O)C(CC)C(=O)CCC(=O)N(Cc1ccccc1)Cc1ccccc1` (centres undefined), the TGI in [5], in experiment [1], in [6], in [2], in experiment [7] and in [3] was over 100 µM each time. Also, the TGI in [4] and in [8] was over 100 µM in each case.
As for `CCOC(=O)c1[nH]c(Br)c(-c2ccc(Br)cc2)c1Br`, in [9], the GI50 was 0.0979 µM; the TGI was 0.505 µM and 0.273 µM.
With `Nc1ncnc2c1nc(Cl)n2C1OC2COP(=O)(O)OC2C1O` (centres undefined), the TGI in experiment [5] is over 300 µM; in [1] it was over 300 µM; in experiment [6] it was over 222 µM; in [10] it was over 300 µM; in experiment [11] it was over 300 µM; in [3] it was over 300 µM. Further, the TGI in experiment [9] and in experiment [4] was over 300 µM throughout.
Consider `CC(=O)[CH-]C(=O)c1ccccc1.CC(=O)[CH-]C(=O)c1ccccc1.[Eu+3].[OH-].[OH3+]`, for which the GI50 in experiment [1], in experiment [2], in experiment [3] and in experiment [4] was over 100 µM in each case. In addition, the TGI in experiment [1], in experiment [2], in [3] and in [4] was over 100 µM each time.
Take `CC(=O)[CH-]C(=O)c1ccccc1.CC(=O)[CH-]C(=O)c1ccccc1.CC(C)CCCC(C)[C@H]1CCC2[C@@H]3CC=C4C[C@@H]([O-])CC[C@]4(C)C3CC[C@@]21C.CC[O-].[Ti+4]` (some centres undefined): the GI50 in [1] is 76 µM; in experiment [2], 33.1 µM; in experiment [3] it was 67.8 µM. The TGI in experiment [1], in experiment [2] and in experiment [3] was over 100 µM in each case.
In the case of `O=[N+]([O-])c1nccn1CC(O)CN1CC1` (centres undefined), the TGI in [5], in [1], in experiment [6], in experiment [2], in [7] and in experiment [3] was over 100 µM in each case. Further, the TGI in experiment [4] and in experiment [8] was over 100 µM throughout.
Consider `N[C@@H]1CCCC[C@H]1N.O=C([O-])C(=O)[O-].[Pt+4]`, for which the GI50 is 19.8 µM in [5]; 34.3 µM in [1]; 2.36 µM in experiment [2]; 0.263 µM in experiment [3]; 1.18 µM in [4]. Besides, the TGI in experiment [5] was over 100 µM; in experiment [1], over 100 µM; in [2], over 100 µM; in experiment [3] it was 24.2 µM; in experiment [4], over 100 µM.
For the compound `O=C(CO)CC(=O)C(=O)Nc1ccccc1`, the TGI in experiment [5], in experiment [1], in experiment [6], in experiment [2], in [7] and in experiment [3] was over 100 µM throughout. This compound also showed a TGI in [4] of over 100 µM.
Consider `CCCCCC/C=C1\CCC(CN2CCCC2)C1=O` (centres undefined), for which the TGI in experiment [5] was 60.2 µM; in experiment [1], 32.9 µM; in [6] it was 25.5 µM; in [2], 11.4 µM; in experiment [7], 42.2 µM; in experiment [3], 41.3 µM. Further, the TGI in experiment [4] is 25.6 µM; in experiment [8], 31.4 µM.
As to `CN(C)c1ccc([O][Bi]([Cl])[Cl])cc1`, the GI50 is over 100 µM in experiment [5]; over 100 µM in experiment [1]; over 100 µM in [6]; 30.7 µM in experiment [7]; over 100 µM in experiment [3]; over 100 µM in experiment [4]. For the same compound, the GI50 in experiment [8] is 80.6 µM. In addition, the TGI in experiment [5], in experiment [1], in experiment [6], in experiment [7], in experiment [3] and in experiment [4] was over 100 µM throughout. Further, the TGI in [8] is over 100 µM.
`COC(=O)/C([Se]c1c(C)cc(C)cc1C)=C(\[Se]c1c(C)cc(C)cc1C)C(=O)OC`: the TGI in [5], in experiment [1], in experiment [6], in experiment [2], in [7] and in experiment [3] was over 100 µM throughout. The TGI in experiment [4] is over 100 µM.
